Earlier results, collected in the PKSmart pharmacokinetics tables (Seal et al. 2025).

Assay: Lombardo, Berellini, Obach 2018, Drug Metab Dispos 46:1466, doi 10.1124/dmd.118.082966
Conditions: human; for MRT / Vd / clearance / half-life: in vivo, iv; for fraction unbound: plasma

C[C@@H]1[C@H](O)[C@@H](C)C=CC=CC=CC=CC=CC=CC=C[C@H](O[C@H]2O[C@H](C)[C@@H](O)[C@H](N)[C@@H]2O)C[C@@H]2O[C@@](O)(C[C@@H](O)C[C@@H](O)[C@H](O)CC[C@@H](O)C[C@@H](O)CC(=O)O[C@H]1C)C[C@H](O)C2C(=O)O (stereo partly specified)
MRT: 61 h
Vd: 0.62 L/kg
clearance: 0.17 mL/min/kg
half-life: 40 h
fraction unbound: 0.03

COCCCC/C(=N\OCCN)c1ccc(C(F)(F)F)cc1
MRT: 12.3 h
Vd: 23.5 L/kg
clearance: 31.9 mL/min/kg
half-life: 12.5 h
fraction unbound: 0.2

CC(C)OC(=O)CCC/C=C/C[C@@H]1[C@@H](CC[C@@H](O)CCc2ccccc2)[C@H](O)C[C@@H]1O
clearance: 6.7 mL/min/kg
half-life: 0.28 h
fraction unbound: 0.1

COc1ccc(CNC[C@@H](O)COc2ccc3[nH]c(=O)ccc3c2)cc1OC
MRT: 3.2 h
Vd: 1.6 L/kg
clearance: 8.9 mL/min/kg
half-life: 3.3 h

Oc1cccc(-c2c3nc(c(-c4cccc(O)c4)c4ccc([nH]4)c(-c4cccc(O)c4)c4ccc([nH]4)c(-c4cccc(O)c4)c4nc2CC4)C=C3)c1
clearance: 0.06 mL/min/kg
half-life: 91.5 h
fraction unbound: 0.14

CS(=O)(=O)OC[C@H](O)[C@@H](O)COS(C)(=O)=O
MRT: 2 h
Vd: 0.59 L/kg
clearance: 4.9 mL/min/kg
half-life: 1.83 h

CC(C)(C)C1(O)CC2OC(=O)CC23C(=O)OC2OC(=O)C(O)C231 (stereo unspecified)
MRT: 4 h
Vd: 2.5 L/kg
clearance: 10 mL/min/kg
half-life: 3.2 h

Cc1nc2n(c(=O)c1CCN1CCC(c3noc4cc(F)ccc34)CC1)CCCC2O (stereo unspecified)
clearance: 1.18 mL/min/kg
half-life: 24.6 h
fraction unbound: 0.24

Cc1nc(C#Cc2ccnc(Cl)c2)c(C)n1-c1ccc(F)cc1
MRT: 57.4 h
Vd: 9.7 L/kg
clearance: 2.8 mL/min/kg
half-life: 78.9 h
fraction unbound: 0.01

C=Cc1c(C)c2[nH]c1=Cc1[nH]c(c(=CCC(=O)OC)c1C)=Cc1[nH]c(c(C)c1CCC(=O)O)C=C1NC(=C3C=CC(C(=O)OC)=C(C(=O)OC)[C@@]13C)C=2
MRT: 4.9 h
Vd: 0.51 L/kg
clearance: 1.73 mL/min/kg
half-life: 6.06 h

CCCCNC(=N)NC(=N)N
MRT: 4.66 h
Vd: 1.84 L/kg
clearance: 6.58 mL/min/kg
half-life: 4.62 h

C[n+]1ccccc1C=NO
MRT: 1.5 h
Vd: 0.8 L/kg
clearance: 9 mL/min/kg
half-life: 1.4 h
fraction unbound: 1

NNC(=O)c1ccncc1
MRT: 1.8 h
Vd: 0.82 L/kg
clearance: 7.4 mL/min/kg
fraction unbound: 1

CCC(CC)COC(C(=O)OCCN(C)C)(c1ccccc1)c1ccccc1
MRT: 21 h
Vd: 7.1 L/kg
clearance: 5.7 mL/min/kg
half-life: 34 h

COc1cc(F)ccc1Cn1ccc2c3c(ncc21)C(=O)N(O)CC3
MRT: 3.95 h
Vd: 5.7 L/kg
clearance: 24 mL/min/kg
half-life: 3.8 h
fraction unbound: 0.08

CC(=O)Nc1cccc(-n2c(=O)n(C3CC3)c(=O)c3c(Nc4ccc(I)cc4F)n(C)c(=O)c(C)c32)c1
MRT: 304 h
Vd: 13.9 L/kg
clearance: 0.8 mL/min/kg
half-life: 229 h

OC[C@H]1O[C@@H]2O[C@H]3[C@H](O)[C@@H](O)[C@@H](O[C@H]4[C@H](O)[C@@H](O)[C@@H](O[C@H]5[C@H](O)[C@@H](O)[C@@H](O[C@H]6[C@H](O)[C@@H](O)[C@@H](O[C@H]7[C@H](O)[C@@H](O)[C@@H](O[C@H]8[C@H](O)[C@@H](O)[C@@H](O[C@H]1[C@H](O)[C@H]2O)O[C@@H]8CO)O[C@@H]7CO)O[C@@H]6CO)O[C@@H]5CO)O[C@@H]4CO)O[C@@H]3CO
MRT: 1.9 h
Vd: 0.21 L/kg
clearance: 1.8 mL/min/kg
half-life: 1.6 h

COCC(NC(C)=O)C(=O)NCc1ccccc1 (stereo unspecified)
MRT: 17.2 h
Vd: 0.58 L/kg
clearance: 0.57 mL/min/kg
half-life: 12.3 h
fraction unbound: 0.85

C[C@H](/C=C/[C@H](C)C(C)(C)O)[C@H]1CC[C@H]2/C(=C/C=C3C[C@@H](O)C[C@H](O)C3)CCC[C@]12C
MRT: 7.7 h
Vd: 0.41 L/kg
clearance: 0.89 mL/min/kg
half-life: 5.3 h

CCC(C)n1ncn(-c2ccc(N3CCN(c4ccc(OCC5COC(Cn6cncn6)(c6ccc(Cl)cc6Cl)O5)cc4)CC3)cc2)c1=O (stereo unspecified)
Vd: 7.4 L/kg
clearance: 5.1 mL/min/kg
half-life: 25 h

COc1ccc2c3c1O[C@H]1[C@@H](O)CC[C@H]4[C@@H](C2)N(C)CC[C@@]341
MRT: 4.08 h
Vd: 1.07 L/kg
clearance: 4.21 mL/min/kg
half-life: 3.42 h

C=C1CC[C@@]2(O)[C@H]3Cc4ccc(O)c5c4[C@@]2(CCN3CC2CC2)[C@H]1O5
fraction unbound: 0.65

O=C(O)C1=C(C[n+]2ccc(CCS(=O)(=O)[O-])cc2)CSC2C(NC(=O)C(NC(=O)c3[nH]cnc3C(=O)O)c3ccccc3)C(=O)N12 (stereo unspecified)
MRT: 2.1 h
Vd: 0.21 L/kg
clearance: 1.7 mL/min/kg
half-life: 1.8 h

CCC1=C[C@@H]2CN(C1)Cc1c([nH]c3ccccc13)[C@@](C(=O)OC)(c1cc3c(cc1OC)N(C)[C@H]1[C@@](O)(C(=O)OC)[C@H](OC(C)=O)[C@]4(CC)C=CCN5CC[C@]31[C@@H]54)C2
MRT: 18 h
Vd: 23 L/kg
clearance: 20 mL/min/kg
half-life: 26 h
fraction unbound: 0.87

O=C(O)c1ccc(-n2nc(-c3ccccc3O)nc2-c2ccccc2O)cc1
MRT: 4.07 h
Vd: 0.2 L/kg
clearance: 0.84 mL/min/kg
half-life: 4.05 h
fraction unbound: 0.004

CNCCC=C1c2ccccc2CCc2ccccc21
MRT: 37 h
Vd: 22 L/kg
clearance: 10 mL/min/kg
half-life: 30 h

CC(C)C1C(=O)NC(CCCNC(=N)N)C(=O)NCC(=O)NC(CC(=O)O)C(=O)NC(Cc2ccccc2)C(=O)N1C (stereo unspecified)
MRT: 3.67 h
Vd: 0.26 L/kg
clearance: 1.18 mL/min/kg
half-life: 3.6 h

COc1cc([S+](C)O)ccc1-c1nc2cnccc2[n-]1 (stereo unspecified)
MRT: 1.3 h
Vd: 1.67 L/kg
clearance: 20.7 mL/min/kg
half-life: 1.2 h
fraction unbound: 0.48

C/C=C(/C)C(=O)O[C@H]1[C@H](OC(C)=O)[C@]2(CO)[C@H](O)C[C@]3(C)C(=CC[C@@H]4[C@@]5(C)CC[C@H](O[C@@H]6OC(C(=O)O)[C@@H](O[C@@H]7O[C@H](CO)[C@@H](O)[C@H](O)[C@H]7O)[C@H](O)[C@H]6O[C@@H]6O[C@H](CO)[C@@H](O)[C@H](O)[C@H]6O)[C@](C)(CO)[C@@H]5CC[C@]43C)[C@@H]2CC1(C)C (stereo partly specified)
MRT: 1.5 h
Vd: 0.23 L/kg
clearance: 2.55 mL/min/kg
half-life: 1.8 h

CC(c1ccccn1)c1c(CCN(C)C)sc2ccccc12 (stereo unspecified)
MRT: 6.8 h
Vd: 1.83 L/kg
clearance: 5.31 mL/min/kg
half-life: 9.1 h

O=NNc1cnccn1
MRT: 0.29 h
Vd: 0.31 L/kg
clearance: 15.1 mL/min/kg
half-life: 0.38 h

Nc1nc(=O)c2c([nH]1)NC[C@H](CNc1ccc(C(=O)NC(CCC(=O)O)C(=O)O)cc1)N2C=O (stereo partly specified)
MRT: 1.1 h
Vd: 0.27 L/kg
clearance: 4.1 mL/min/kg
half-life: 1.1 h

COc1cc2nc(N(C)CCCNC(=O)C3CCCO3)nc(N)c2cc1OC (stereo unspecified)
MRT: 4.2 h
Vd: 1.5 L/kg
clearance: 5.9 mL/min/kg
half-life: 4.8 h
fraction unbound: 0.14

Cc1nccn1CCC(C(N)=O)(c1ccccc1)c1ccccc1
MRT: 4.1 h
Vd: 1.51 L/kg
clearance: 6.1 mL/min/kg
half-life: 3.2 h
fraction unbound: 0.12

Cn1c(CCCC(=O)O)nc2cc(N(CCCl)CCCl)ccc21
MRT: 0.81 h
Vd: 0.22 L/kg
clearance: 4.49 mL/min/kg
half-life: 0.41 h
fraction unbound: 0.05

CCN(CC)CCCC(C)Nc1ccnc2cc(Cl)ccc12 (stereo unspecified)
MRT: 740 h
Vd: 140 L/kg
clearance: 4.1 mL/min/kg
half-life: 570 h

C=CCC1(C(C)C#CCC)C(=O)NC(=O)N(C)C1=O (stereo unspecified)
MRT: 1.5 h
Vd: 1.1 L/kg
clearance: 12 mL/min/kg
half-life: 1.6 h
fraction unbound: 0.27

CN[C@H]1CN(c2ccc3c(=O)c(C(=O)O)cn(-c4nccs4)c3n2)C[C@@H]1OC
MRT: 30.6 h
Vd: 1.46 L/kg
clearance: 0.79 mL/min/kg
half-life: 25.5 h

CCn1cnc(C(=O)NC)c1C(=O)NC
MRT: 1 h
Vd: 0.73 L/kg
clearance: 12.1 mL/min/kg
half-life: 0.83 h
fraction unbound: 0.92

Cc1cc(=O)n(-c2ccccc2)[nH]1
MRT: 2.65 h
Vd: 0.23 L/kg
clearance: 1.42 mL/min/kg
half-life: 2.36 h
fraction unbound: 0.89

O=c1[nH]c2ccccc2n1CCCN1CCC(n2c(=O)[nH]c3cc(Cl)ccc32)CC1
MRT: 6 h
Vd: 3.4 L/kg
clearance: 9.5 mL/min/kg

CS(=O)(=O)OCCN(CCBr)c1c(C(=O)NCCOP(=O)(O)O)cc([N+](=O)[O-])cc1[N+](=O)[O-]
MRT: 0.32 h
Vd: 0.86 L/kg
clearance: 44.8 mL/min/kg
half-life: 0.1 h

N=C(N)NC(CS)C(=O)O (stereo unspecified)
MRT: 1.39 h
Vd: 0.25 L/kg
clearance: 2.88 mL/min/kg
half-life: 1.34 h

CS(=O)(=O)c1ccc(C2=C(c3ccccc3)C(=O)OC2)cc1
MRT: 10.8 h
Vd: 1.3 L/kg
clearance: 2 mL/min/kg
half-life: 7.5 h
fraction unbound: 0.13

O=S(=O)(O)c1cc(O)ccc1O
MRT: 2.41 h
Vd: 0.12 L/kg
clearance: 0.87 mL/min/kg
half-life: 2.01 h

O=c1ccc2ccc(OCCCCN3CCN(c4cccc5sccc45)CC3)cc2[nH]1
MRT: 71 h
Vd: 1.46 L/kg
clearance: 0.34 mL/min/kg
half-life: 54.4 h
fraction unbound: 0.002

O=C(O)CCCc1ccc(N(CCCl)CCCl)cc1
MRT: 1.5 h
Vd: 0.26 L/kg
clearance: 2.8 mL/min/kg
half-life: 1.1 h

CC[C@@]1(O)C(=O)OCc2c1cc1n(c2=O)Cc2c-1nc1ccccc1c2CC[Si](C)(C)C
MRT: 13.3 h
Vd: 3.26 L/kg
clearance: 4.2 mL/min/kg
half-life: 13.2 h
